In patent US4591604A, “Method of inhibiting the complement system by administering multisulfonated naphthalene ureas” (American Cyanamid Company, priority 1984, dated 1986):
Where a name gives a salt, the structure may show the parent alone.

Legend:
[1] = target: activated human C1 (Homo sapiens, UniProt P09871); experiment: Test Code 026 (C1 inhibitor); format: biochemical; settings: serial twofold dilution assay; higher well number indicates higher activity
[2] = system: serum complement activity; experiment: Guinea Pig Intraperitoneal Test (GPIP); format: in vivo; settings: 200 mg/kg i.p.; for In vivo Activity Guinea Pigs Intraperitoneal % Lowering, 30 minutes: blood sample 30 minutes after injection; for In vivo Activity Guinea Pigs Intraperitoneal % Lowering, 60 minutes: blood sample 60 minutes after injection; for In vivo Activity Guinea Pigs Intraperitoneal % Lowering, 120 minutes: blood sample 120 minutes after injection
Procedure: (§1) An active inhibitor protects C2 from C1 and C4; (ii) Test Code 036 (C-Shunt inhibitor)--In this test human erythrocytes rendered fragile are lysed in autologous serum via the shunt pathway activated by cobra venom factor in the presence of appropriate dilutions of the test compound. Inhibition of the shunt pathway results in failure of lysis; (iii) Cap 50 Test--Here, appropriate amounts of the test compound are added to a pool of guinea pig serum in vitro, after which the complement level is determined in undiluted serum by the serum capillary tube assay of U.S. Pat. No. 3,876,376. The concentration of compound inhibiting 50% is reported; and (iv) Guinea Pig Intraperitoneal Test (GPIP)--Guinea pigs weighing about 300 g are dosed intraperitoneally (i.p.) with 200 mg/kg of the test compound dissolved in saline and adjusted to pH 7-8. Approximately 0.4 ml blood samples, taken by orbital sinus puncture 30 minutes and one hour after injections, are collected directly into centrifuge tubes; 5 ml blood samples, taken by decapitation 2 hours after injection, are collected directly into diSPo® beakers. The samples were allowed to clot, centrifuged, and the resultant sera were assayed for complement activity using the capillary complement assay. Percent inhibition is calculated by comparison with simultaneous controls. The results of the GPIP appear in Table I together with results of Test Code 026, 036 and Cap 50.

[3] = system: shunt pathway activated by cobra venom factor (lysis of human erythrocytes in autologous serum); experiment: Test Code 036 (C-Shunt inhibitor); format: cell-based; settings: serial twofold dilution assay; higher well number indicates higher activity
Procedure: as §1, with “The results of the GPIP appear in Table I together with results of Test Code 026, 036 and Cap 50.” left out

[4] = system: complement system; settings: reported in the literature; cited from earlier work
[5] = system: hereditary angioneurotic edema; settings: reported in the literature; cited from earlier work
[6] = system: human serum complement; settings: in vitro and in vivo, judged by reduction in total hemolytic complement activity; cited from earlier work

With `O=C(Nc1cc2c(O)cc(S(=O)(=O)[O-])cc2cc1S(=O)(=O)[O-])Nc1cc2c(O)cc(S(=O)(=O)[O-])cc2cc1S(=O)(=O)[O-].[Na+].[Na+].[Na+].[Na+]` [3,3'-Ureylenebis(5-hydroxy-2,7-naphthalenedisulfonic acid), tetrasodium salt] the “C1 026 Wells” value [1] was “+4 Wells”, the “In vivo Activity Guinea Pigs Intraperitoneal % Lowering, 30 minutes” value [2] was 4% and the “In vivo Activity Guinea Pigs Intraperitoneal % Lowering, 60 minutes” value [2] was 1%. The “In vivo Activity Guinea Pigs Intraperitoneal % Lowering, 120 minutes” value [2] was 28%.

With `O=C(Nc1cc(S(=O)(=O)[O-])c2cc([N+](=O)[O-])cc(S(=O)(=O)[O-])c2c1)Nc1cc(S(=O)(=O)[O-])c2cc([N+](=O)[O-])cc(S(=O)(=O)[O-])c2c1.[Na+].[Na+].[Na+].[Na+]` [3,3'-Ureylenebis(7-nitro-1,5-naphthalenedisulfonic acid), tetrasodium salt] the “C1 026 Wells” value [1] was “+3 Wells”.

For `O=C(Nc1cc2ccc(S(=O)(=O)[O-])cc2cc1S(=O)(=O)[O-])Nc1cc2ccc(S(=O)(=O)[O-])cc2cc1S(=O)(=O)[O-].[Na+].[Na+].[Na+].[Na+]` [3,3'-Ureylenedi-2,7-naphthalenedisulfonic acid, tetrasodium salt], the “C1 026 Wells” value [1] was “+3 Wells”.

For `O=C(Nc1cc(S(=O)(=O)O)cc2cc(S(=O)(=O)O)cc(OS(=O)(=O)c3ccccc3)c12)Nc1cc(S(=O)(=O)O)cc2cc(S(=O)(=O)O)cc(OS(=O)(=O)c3ccccc3)c12` [4,4'-Ureylenebis(5-hydroxy-2,7-naphthalenedisulfonic acid), tetrasodium salt dibenzenesulfonate], the “C1 026 Wells” value [1] was “+3 Wells”.

With `O=C(Nc1ccc(S(=O)(=O)[O-])c2ccc(S(=O)(=O)[O-])cc12)Nc1ccc(S(=O)(=O)[O-])c2ccc(S(=O)(=O)[O-])cc12.[Na+].[Na+].[Na+].[Na+]` [4,4'-Ureylenedi-1,6-naphthalenedisulfonic acid, tetrasodium salt] the “C1 026 Wells” value [1] was “+3 Wells”.

In the case of `O=C(Nc1ccc(S(=O)(=O)[O-])c2ccccc12)Nc1ccc(S(=O)(=O)[O-])c2ccccc12.[Na+].[Na+]` [4,4'-Ureylenedi-1-naphthalenesulfonic acid, disodium salt], the “C1 026 Wells” value [1] is reported as “+2 Wells”.

In the case of `O=C(Nc1cc(S(=O)(=O)[O-])cc2ccc(S(=O)(=O)[O-])cc12)Nc1cc(S(=O)(=O)[O-])cc2ccc(S(=O)(=O)[O-])cc12.[Na+].[Na+].[Na+].[Na+]` [4,4'-Ureylenedi-2,6-naphthalenedisulfonic acid, tetrasodium salt], the “C1 026 Wells” value [1] is reported as “+2 Wells”.

With `O=C(Nc1cc(S(=O)(=O)[O-])cc2cc(S(=O)(=O)[O-])ccc12)Nc1cc(S(=O)(=O)[O-])cc2cc(S(=O)(=O)[O-])ccc12.[Na+].[Na+].[Na+].[Na+]` [4,4'-Ureylenedi-2,7-naphthalenedisulfonic acid, tetrasodium salt] the “C1 026 Wells” value [1] was “+3 Wells”.

With `O=C(Nc1ccc2c(S(=O)(=O)[O-])cc(S(=O)(=O)[O-])cc2c1)Nc1ccc2c(S(=O)(=O)[O-])cc(S(=O)(=O)[O-])cc2c1.[Na+].[Na+].[Na+].[Na+]` [6,6'-Ureylenedi-1,3-naphthalenedisulfonic acid, tetrasodium salt] the “C1 026 Wells” value [1] was “+3 Wells”.

For `O=C(Nc1ccc2c(O)cc(S(=O)(=O)O)cc2c1)Nc1ccc2c(O)cc(S(=O)(=O)O)cc2c1` [6,6'-ureylenebis(1-hydroxy-3-naphthalenesulfonic acid)], the “C1 026 Wells” value [1] was “+1 Wells”.

In the case of `O=C(Nc1cc(S(=O)(=O)[O-])c2cc(S(=O)(=O)[O-])cc(S(=O)(=O)[O-])c2c1)Nc1cc(S(=O)(=O)[O-])c2cc(S(=O)(=O)[O-])cc(S(=O)(=O)[O-])c2c1.[Na+].[Na+].[Na+].[Na+].[Na+].[Na+]` [7,7'-Ureylenedi-1,3,5-naphthalenetrisulfonic acid, hexasodium salt], the “C1 026 Wells” value [1] is reported as “+6 Wells” and the “C-Shunt Inhibition 036 Wells” value [3] is reported as “+1 Wells”.

For `O=C(Nc1ccc2cc(S(=O)(=O)O)cc(O)c2c1)Nc1ccc2cc(S(=O)(=O)O)cc(O)c2c1` [7,7'-ureylenebis(1-hydroxy-3-naphthalenesulfonic acid)], the “C1 026 Wells” value [1] was “+2 Wells”.

In the case of `O=S(=O)([O-])c1cc(NC(=S)Nc2cc(S(=O)(=O)[O-])cc3cc(S(=O)(=O)[O-])cc(S(=O)(=O)[O-])c23)c2c(S(=O)(=O)[O-])cc(S(=O)(=O)[O-])cc2c1.[Na+].[Na+].[Na+].[Na+].[Na+].[Na+]` [8,8'-(2-Thioureylene)di-1,3,6-naphthalenetrisulfonic acid, hexasodium salt], the “C1 026 Wells” value [1] is reported as “+5 Wells”, the “In vivo Activity Guinea Pigs Intraperitoneal % Lowering, 30 minutes” value [2] is reported as 41% and the “In vivo Activity Guinea Pigs Intraperitoneal % Lowering, 60 minutes” value [2] is reported as 20%. The “In vivo Activity Guinea Pigs Intraperitoneal % Lowering, 120 minutes” value [2] was 42%.

For `O=C(Nc1ccc(S(=O)(=O)[O-])c2cc(S(=O)(=O)[O-])cc(S(=O)(=O)[O-])c12)Nc1ccc(S(=O)(=O)[O-])c2cc(S(=O)(=O)[O-])cc(S(=O)(=O)[O-])c12.[Na+].[Na+].[Na+].[Na+].[Na+].[Na+]` [8,8'-Ureylenedi-1,3,5-naphthalenetrisulfonic acid, hexasodium salt], the “In vivo Activity Guinea Pigs Intraperitoneal % Lowering, 30 minutes” value [2] was 92%, the “In vivo Activity Guinea Pigs Intraperitoneal % Lowering, 60 minutes” value [2] was 92% and the “In vivo Activity Guinea Pigs Intraperitoneal % Lowering, 120 minutes” value [2] was 94%.

In the case of `O=C(Nc1cc(S(=O)(=O)[O-])cc2cc(S(=O)(=O)[O-])cc(S(=O)(=O)[O-])c12)Nc1cc(S(=O)(=O)[O-])cc2cc(S(=O)(=O)[O-])cc(S(=O)(=O)[O-])c12.[Na+].[Na+].[Na+].[Na+].[Na+].[Na+]` [8,8'-Ureylenedi-1,3,6-naphthalenetrisulfonic acid, hexasodium salt], the “C1 026 Wells” value [1] is reported as “+5 Wells”, the “In vivo Activity Guinea Pigs Intraperitoneal % Lowering, 30 minutes” value [2] is reported as 25% and the “In vivo Activity Guinea Pigs Intraperitoneal % Lowering, 60 minutes” value [2] is reported as 61%. For the same compound, the “In vivo Activity Guinea Pigs Intraperitoneal % Lowering, 120 minutes” value [2] was 65%.

In the case of `O=C(Nc1cc(S(=O)(=O)[O-])cc2cccc(S(=O)(=O)[O-])c12)Nc1cc(S(=O)(=O)[O-])cc2cccc(S(=O)(=O)[O-])c12.[Na+].[Na+].[Na+].[Na+]` [8,8'-Ureylenedi-1,6-naphthalenedisulfonic acid, tetrasodium salt], the “C1 026 Wells” value [1] is reported as “+3 Wells”.

In the case of `Nc1ccc2cc(S(=O)(=O)[O-])cc(O)c2c1N=Nc1ccc(NC(=O)Nc2ccc(N=Nc3c(N)ccc4cc(S(=O)(=O)[O-])cc(O)c34)c(S(=O)(=O)[O-])c2)cc1S(=O)(=O)[O-].[Na+].[Na+].[Na+].[Na+]` [chlorazol fast pink, 3,3'-ureylenebis[6-(2-amino-8-hydroxy-6-sulfo-1-naphthylazo)benzenesulfonic acid], tetrasodium salt], the anti-complementary effect [4] is listed as “anti-complementary effect”.

For `NCCCCCC(=O)O` [epsilon-aminocaproic acid], the “success in the treatment of hereditary angioneurotic edema” value [5] is listed as “used with success”.

In the case of `NC[C@H]1CC[C@H](C(=O)O)CC1` [tranexamic acid], the “success in the treatment of hereditary angioneurotic edema” value [5] is listed as “used with success”.

In the case of heparin, the anti-complementary effect [4] is listed as “anti-complementary effect”.

For pentosanpolysulfoester, the “anticomplementary activity on human serum” value [6] is listed as “anticomplementary activity”.
